Laboratory results as given in paper PMC6472337, “L amino acid transporter structure and molecular bases for the asymmetry of substrate interaction” (Nature Communications, 2019).
“And” between values parts separate entries of the source, which are not always exact repeats. Equal values may be shown once. Read-outs that look alike come from different tables or passages of the source.

Assays:
BasC Y236F mutant = assay: [3H]L-alanine transport in BasC Y236F proteoliposomes; type: biochemical, Carnobacterium sp AT7
Protocol: BasC was overexpressed as a C-terminal fusion with GFP in E. coli BL21 Star (DE3) cells grown in LB media. Single point mutations (Supplementary Table 2) were introduced using the QuikChange site-directed mutagenesis kit (Stratagene, San Diego, CA). All mutations were verified by sequencing. Expression was induced with 0.1 mM isopropyl-ß-D-thiogalactopyranoside at 37 °C for 22 h. Cells were harvested at 5000 × g for 15 min at 4 °C and stored at −80 °C until use. Cell pellets were thawed and resuspended in 20 mM Tris-Base, 150 mM NaCl, pH 7.4. Cells were pelleted again at 5000 × g for 15 min at 4 °C, resuspended in lysis buffer (20 mM Tris-Base, 350 mM NaCl, pH 7.4, 1 mM pefabloc and complete mini protease inhibitor cocktail) (Roche, Basel Switzerland) and then broken using a Cell Disruptor (four cycles at 20,000 psi; Constant Systems Ltd., Daventry, UK). Cell debris was removed by centrifugation (15,000 × g for 1 h at 4 °C), and the supernatant was subjected to ultracentrifugation (200,000 × g for 2 h at 4 °C). The membrane pellet was resuspended in 20 mM Tris-Base, 150 mM NaCl, pH 7.4 and 10% glycerol at a protein concentration of 8–12 mg ml^−1, and then frozen in liquid nitrogen and stored at −80 °C until use.
BasC-GFP protein was reconstituted in E. coli polar lipids (Sigma-Aldrich, Madrid, Spain), as previously described. Lipids were dried under N2 and suspended in reconstitution buffer (20 mM Tris-Base, 150 mM NaCl, pH 7.4). The suspension was sonicated to clarity and purified BasC protein was added to reach the desired protein to lipid ratio of 1:100 (w:w). To destabilize the liposomes, 1.25% ß-D-octylglucoside was added and the mixture was incubated on ice with occasional agitation for 5 min. DDM and ß-D-octylglucoside were removed by dialysis for 40 h at 4 °C against 100 volumes of dialysis buffer. Proteoliposome (PL) suspensions were frozen in liquid N2 and stored at −80 °C until use.
For uptake experiments, the desired intraliposomal amino acid concentration was added to the PL suspension, which was then subjected to three freeze/thaw cycles. The extraliposomal amino acid content was then removed by ultracentrifugation (100,000 × g for 1 h at 4 °C) and PLs were resuspended to one-third of the initial volume with reconstitution buffer. Amino acid uptake assays were initiated after mixing 10 μl of cold PLs with 180 μl of transport buffer (20 mM Tris-Base, 150 mM NaCl, pH 7.4 plus 0.5–1 µCi/180 µl of radiolabeled L-amino acid (Perkin Elmer, Waltham, MA)) supplemented with the unlabeled amino acid to the desired concentration. This mixture was then incubated at room temperature for the indicated periods. […] Filters were then washed twice with 2 ml of stop buffer and dried, and the trapped radioactivity was counted. Transport measured in PLs containing no amino acid was subtracted from each data point to calculate the net exchange. […] BasC protein in PLs was determined by Coomassie blue staining in SDS-PAGE gels compared with known amounts of BasC in DDM micelles, determined by BCA assay (Pierce, Rockford, IL) and loaded in the same gel.

hAsc-1 K194A mutant = target: T1, hAsc-1 K194A mutant (Homo sapiens, UniProt Q9NS82, K194A); assay: [3H]L-alanine uptake in HeLa cells, hAsc-1 K194A
T1 sequence (Q9NS82 1-523 K194A): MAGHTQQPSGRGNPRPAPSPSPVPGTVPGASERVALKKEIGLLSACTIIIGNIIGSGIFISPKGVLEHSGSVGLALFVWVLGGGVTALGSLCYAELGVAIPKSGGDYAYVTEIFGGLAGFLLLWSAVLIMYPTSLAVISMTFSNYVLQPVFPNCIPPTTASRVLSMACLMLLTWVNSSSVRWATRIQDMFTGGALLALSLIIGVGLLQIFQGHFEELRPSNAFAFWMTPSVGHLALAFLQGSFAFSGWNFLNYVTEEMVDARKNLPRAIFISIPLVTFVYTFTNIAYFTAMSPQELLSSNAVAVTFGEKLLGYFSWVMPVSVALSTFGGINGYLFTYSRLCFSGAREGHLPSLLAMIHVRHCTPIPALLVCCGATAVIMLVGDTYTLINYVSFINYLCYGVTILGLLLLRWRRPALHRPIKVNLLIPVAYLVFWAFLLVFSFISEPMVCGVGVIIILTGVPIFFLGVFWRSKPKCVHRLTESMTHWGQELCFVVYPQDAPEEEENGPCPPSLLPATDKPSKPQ
T1 sequence (P08195 1-529 partner): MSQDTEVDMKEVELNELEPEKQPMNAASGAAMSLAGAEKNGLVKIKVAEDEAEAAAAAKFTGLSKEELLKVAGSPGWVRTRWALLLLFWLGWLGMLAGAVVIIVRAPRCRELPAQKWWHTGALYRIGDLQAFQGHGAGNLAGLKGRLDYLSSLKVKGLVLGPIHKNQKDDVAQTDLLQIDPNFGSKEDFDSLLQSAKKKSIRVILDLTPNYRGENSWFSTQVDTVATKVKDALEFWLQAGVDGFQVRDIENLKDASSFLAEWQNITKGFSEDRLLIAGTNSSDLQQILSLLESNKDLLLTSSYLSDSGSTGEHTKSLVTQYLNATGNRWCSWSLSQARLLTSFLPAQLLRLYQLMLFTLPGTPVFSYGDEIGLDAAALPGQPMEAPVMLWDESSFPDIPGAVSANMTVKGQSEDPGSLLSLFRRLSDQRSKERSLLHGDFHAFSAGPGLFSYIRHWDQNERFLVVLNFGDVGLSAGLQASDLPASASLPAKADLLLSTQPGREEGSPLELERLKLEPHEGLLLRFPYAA

SMILES: C[C@H](N)C(=O)O [L-alanine]
- 10 µM [3H]L-alanine/4 mM L-alanine exchange normalized to wild-type (BasC Y236F mutant; BasC Y236F in PLs, WT = 100, n=1-3 and mean): 116.03 and 123.34 and 111.98 and 142.02
- Vmax (BasC Y236F mutant; Y236F): 4.58 ± 0.17 pmols L-alanine µg protein^−1 s^−1
- increase of cytoplasmic apparent affinity vs. wild-type BasC (BasC Y236F mutant; Y236F): ~ 4 fold
- saturation of the transporter at 4 mM intraliposomal L-alanine (BasC Y236F mutant; Y236F mutant): fully saturated
- increase in function (BasC Y236F mutant; Y236F vs wild-type, extracellular 10 μM [3H]L-alanine against 4 mM intraliposomal L-alanine): about 20%
- Km (BasC Y236F mutant; extracellular side, Y236F, read-out: Km (o)): 50.2 ± 3.44 µM
- Km (BasC Y236F mutant; intracellular side, Y236F, read-out: Km (i)): 560 ± 110 µM
- reduction of Vmax vs. wild-type (hAsc-1 K194A mutant): ~ 10 fold
- reduction of external apparent affinity vs. wild-type (hAsc-1 K194A mutant): ~ 10 fold
